According to patent publication US20200325505A1, “FILAMENTOUS FUNGI CAPABLE OF PRODUCING VERY LONG CHAIN FATTY ACIDS” (UT-Battelle, LLC, priority 2019, published 2020):
Where two headings read alike, the source gives them in different places.

Tested on: Mortierella elongata AG77
Assay: Carbon source utilisation in Biolog 96-well plates, formazan formation after tetrazolium addition
Assay type: cell-based
Settings: for Metabolized: Metabolized = more formazan formation than a control containing no carbon source, observed visually at 2 h, 24 h, 148 h; for Carbon sources that Mortierella elongata AG77 can metabolize: summary of Table 3
Experimental: Two 300 mL volumes of growth medium comprising 1 g/L KH2PO4, 1 g/L MgSO4 7H2O, 0.1 g/L CaCl2, 0.02 g/L FeNaEDTA, 0.1 g/L NaCl, and either 1 g/L NH4NO3 or 20 g/L sucrose were prepared. Acidity was adjusted to 5.5 using NaOH and volumes of growth medium were autoclaved 30 min at 121° C. to sterilize. Aliquots of 200 μL of carbon-free medium or nitrogen-free medium were pipetted into each well of a set of 96-well plates previously prepared with lyophilized putative carbon or nitrogen sources (Biolog Inc., Hayward, Calif.). Inocula were prepared by perforating a culture of Mortierella elongata AG77 grown on 20 g/L potato dextrose agar with a 3 mm diameter cork borer and separating the surface mycelial mat from the solid growth medium using tweezers. Each well was inoculated with one inoculum. Cultures were incubated at 21° C. for 24 hours to allow metabolic changes to stabilize, and then 100 μL of 3 g/L tetrazolium chloride in water was added to each well. Formazan formation was observed visually at 2 h, 24 h, and 148 h.
Conclusions were based on rate and intensity of formazan formation using the 3-4,5-dimethylthiazol-2-yl)-2,5-diphenyltetrazolium bromide (MTT) assay. “Metabolized” indicates more formazan formation than a control containing no carbon source, and “Toxic” indicates less formazan formation than a control containing no carbon source. “Metabolized” and “Toxic” assignments are mutually exclusive. In this example, a compound may be “Metabolized” or “Toxic,” but not both.

[1] = compound as carbon source, Toxic = less formazan formation than a control containing no carbon source

Compound | Toxic | Metabolized (compound as carbon source) | Toxic [1] | Carbon sources that Mortierella elongata AG77 can metabolize
OC[C@H]1O[C@@H](O[C@@H]2[C@@H](CO)OC(O)(CO)[C@H]2O)[C@H](O)[C@@H](O)[C@H]1O (mixture of isomers) [Lactulose] | no | no | – | –
C[N+](C)(C)CC(O)CC(=O)[O-] (racemic) [D,L-Carnitine] | – | yes | no | can metabolize
O=C(O)CC(O)C(=O)O (racemic) [D,L-Malic Acid] | – | no | no | –
NCC(O)c1ccc(O)cc1 (racemic) [D,L-Octopamine] | – | no | no | –
O=P(O)(O)OCC(O)CO (racemic) [D,L-α-Glycerol- Phosphate] | – | no | no | –
CC(O)CO (centres unmarked) [1,2-Propanediol] | – | yes | no | can metabolize
CC(O)C(C)O (centres unmarked) [2,3-Butanediol] | no | no | – | –
CC(=O)C(C)=O [2,3-Butanedione] | – | no | no | –
Nc1ncnc2c1ncn2C1CC(O)C(CO)O1 (centres unmarked) [2-Deoxy Adenosine] | – | no | no | –
O=CC[C@H](O)[C@H](O)CO [2-Deoxy-D-Ribose] | no | no | – | –
O=C(O)c1ccccc1O [2-Hydroxy Benzoic Acid] | – | no | – | –
O=C[C@@H](O)[C@H](O[C@@H]1O[C@H](CO)[C@H](O)[C@H](O)[C@H]1O)[C@H](O)CO [3-0-β-D-Galacto-pyranosyl-D-Arabinose] | – | no | no | –
CC(=O)C(C)O (centres unmarked) [3-Hydroxy 2-Butanone] | – | no | no | –
O=C(O)c1ccc(O)cc1 [4-Hydroxy Benzoic Acid] | no | no | – | –
O=C(CO)[C@@H](O)[C@H](O)[C@@H](O)C(=O)O [5-Keto-D-Gluconic Acid] | – | no | no | –
CC(=O)O [Acetic Acid] | – | no | – | –
CC(=O)CC(=O)O [Acetoacetic Acid] | no | yes | – | can metabolize
OC[C@@H](O)[C@@H](O)[C@@H](O)CO [Adonitol] | no | no | – | –
N#C[C@H](O[C@@H]1O[C@H](CO[C@@H]2O[C@H](CO)[C@@H](O)[C@H](O)[C@H]2O)[C@@H](O)[C@H](O)[C@H]1O)c1ccccc1 [Amygdalin] | – | no | no | –
OC[C@H]1O[C@@H](Oc2ccc(O)cc2)[C@H](O)[C@@H](O)[C@@H]1O [Arbutin] | – | no | no | –

Compound | Toxic | Metabolized (compound as carbon source) | Toxic [1] | Carbon sources that Mortierella elongata AG77 can metabolize
O=C(O)CC(Br)C(=O)O (centres unmarked) [Bromo Succinic Acid] | – | no | no | –
CCCC(=O)O [Butyric Acid] | no | no | – | –
CCCCCCCCCC(=O)O [Capric Acid] | no | no | – | –
CCCCCC(=O)O [Caproic Acid] | – | no | no | –
C/C(=C/C(=O)O)C(=O)O [Citraconic Acid] | no | no | – | –
CC(O)(CC(=O)O)C(=O)O (centres unmarked) [Citramalic Acid] | no | no | – | –
O=C(O)CC(O)(CC(=O)O)C(=O)O [Citric Acid] | – | yes | – | can metabolize
O=C[C@@H](O)[C@H](O)[C@H](O)CO [D-Arabinose] | no | no | – | –
OC[C@@H](O)C(O)[C@H](O)CO [D-Arabitol] | – | no | no | –
OC[C@H]1O[C@@H](O[C@H]2[C@H](O)[C@@H](O)[C@H](O)O[C@@H]2CO)[C@H](O)[C@@H](O)[C@@H]1O [D-Cellobiose] | – | no | – | –
O=C(CO)[C@@H](O)[C@H](O)[C@H](O)COP(=O)(O)O [D-Fructose-6-Phosphate] | – | yes | no | can metabolize
O=C(CO)[C@@H](O)[C@H](O)[C@H](O)CO [D-Fructose] | no | no | – | –
C[C@@H](O)[C@H](O)[C@H](O)[C@@H](O)C=O [D-Fucose] | – | yes | no | can metabolize
O=C1O[C@@H]([C@H](O)CO)[C@H](O)[C@H]1O [D-Galactonic Acid-γ-Lactone] | – | yes | no | can metabolize
O=C[C@H](O)[C@@H](O)[C@@H](O)[C@H](O)CO [D-Galactose] | no | no | – | –
O=C[C@H](O)[C@@H](O)[C@@H](O)[C@H](O)C(=O)O [D-Galacturonic Acid] | no | no | – | –
O=C(O)[C@H](O)[C@@H](O)[C@H](O)[C@H](O)CO [D-Gluconic Acid] | – | no | no | –
N[C@@H](C(=O)O)[C@@H](O)[C@H](O)[C@H](O)CO [D-Glucosaminic Acid] | – | yes | no | can metabolize
O=P(O)(O)O[C@H]1O[C@H](CO)[C@@H](O)[C@H](O)[C@H]1O [D-Glucose-1-Phosphate] | – | yes | – | can metabolize
O=C[C@H](O)[C@@H](O)[C@H](O)[C@H](O)COP(=O)(O)O [D-Glucose-6-Phosphate] | no | yes | – | can metabolize

Compound | Toxic | Metabolized (compound as carbon source) | Toxic [1] | Carbon sources that Mortierella elongata AG77 can metabolize
O=C[C@H](O)[C@@H](O)[C@H](O)[C@H](O)C(=O)O [D-Glucuronic Acid] | no | yes | – | can metabolize
COC(=O)[C@@H](C)O [D-Lactic Acid Methyl Ester] | – | yes | no | can metabolize
O=C(O)C[C@@H](O)C(=O)O [D-Malic Acid] | – | no | no | –
OC[C@@H](O)[C@@H](O)[C@H](O)[C@H](O)CO [D-Mannitol] | no | no | – | –
O=C[C@@H](O)[C@@H](O)[C@H](O)[C@H](O)CO [D-Mannose] | no | no | – | –
OC[C@H]1O[C@@](CO)(O[C@H]2O[C@H](CO)[C@@H](O)[C@H](O)[C@H]2O)[C@@H](O[C@H]2O[C@H](CO)[C@@H](O)[C@H](O)[C@H]2O)[C@@H]1O [D-Melezitose] | – | no | no | –
OC[C@H]1O[C@H](OCC2O[C@@H](O)[C@H](O)[C@@H](O)[C@@H]2O)[C@H](O)[C@@H](O)[C@H]1O (stereo partly drawn) [D-Melibiose] | – | no | no | –
O=C(CO)[C@H](O)[C@H](O)[C@H](O)CO [D-Psicose] | no | yes | – | can metabolize
OC[C@H]1O[C@H](OC[C@H]2O[C@H](O[C@]3(CO)O[C@H](CO)[C@@H](O)[C@@H]3O)[C@H](O)[C@@H](O)[C@@H]2O)[C@H](O)[C@@H](O)[C@H]1O [D-Raffinose] | no | yes | – | can metabolize
O=C1O[C@H](CO)[C@@H](O)[C@H]1O [D-Ribono-1,4-Lactone] | – | no | no | –
O=C[C@H](O)[C@H](O)[C@H](O)CO [D-Ribose] | no | no | – | –
O=C(O)[C@@H](O)[C@@H](O)[C@H](O)[C@@H](O)C(=O)O [D-Saccharic Acid] | no | no | – | –
OC[C@@H](O)[C@@H](O)[C@H](O)[C@@H](O)CO [D-Sorbitol] | no | yes | – | can metabolize
O=C(CO)[C@@H](O)[C@@H](O)[C@H](O)CO [D-Tagatose] | no | no | – | –
O=C(O)[C@@H](O)[C@H](O)C(=O)O [D-Tartaric Acid] | – | no | – | –
C[C@H](O)[C@@H](N)C(=O)O [D-Threonine] | no | yes | – | can metabolize
OC[C@H]1O[C@H](O[C@H]2O[C@H](CO)[C@@H](O)[C@H](O)[C@H]2O)[C@H](O)[C@@H](O)[C@@H]1O [D-Trehalose] | – | yes | no | can metabolize
O=C[C@H](O)[C@@H](O)[C@H](O)CO [D-Xylose] | no | no | – | –
OC[C@@H](O)[C@H](O)[C@H](O)[C@@H](O)CO [Dulcitol] | no | no | – | –
O=CO [Formic Acid] | – | no | no | –
